Source: PubChem BioAssay AID1259407 (Chemical Carcinogenesis Research Information System (CCRIS), 2018)
Calls of active or inactive are those of the source. How the calls were made is not given here.

Tested on: CCRIS mutagenicity, Ames/micronucleus/aberration tests
Test: CCRIS mutagenicity studies
[1] = Test System: AMES SALMONELLA TYPHIMURIUM, Strain/Indicator: TA97, Metabolic Activation: NONE, Method: STANDARD PLATE
[2] = Test System: AMES SALMONELLA TYPHIMURIUM, Strain/Indicator: TA98, Metabolic Activation: NONE, Method: STANDARD PLATE
[3] = Test System: AMES SALMONELLA TYPHIMURIUM, Strain/Indicator: TA100, Metabolic Activation: NONE, Method: STANDARD PLATE
[4] = Test System: AMES SALMONELLA TYPHIMURIUM, Strain/Indicator: TA98, Metabolic Activation: NONE, Method: PREINCUBATION

Measured: mutagenic call

C1=Cc2c3c1cccc3cc1ccc3ccccc3c21
inactive: Test System: AMES SALMONELLA TYPHIMURIUM, Strain/Indicator: TA98, Metabolic Activation: RAT, LUNG, MICROSOMES, Method: STANDARD PLATE inactive; negative
active: Test System: AMES SALMONELLA TYPHIMURIUM, Strain/Indicator: TA98, Metabolic Activation: HUMAN, LIVER, MICROSOMES, Method: STANDARD PLATE active; positive | Test System: AMES SALMONELLA TYPHIMURIUM, Strain/Indicator: TA98, Metabolic Activation: RAT, LIVER, HEPATOCYTES, Method: PREINCUBATION active; positive | Test System: AMES SALMONELLA TYPHIMURIUM, Strain/Indicator: TA98, Metabolic Activation: RAT, LIVER, MICROSOMES, AROCLOR 1254, Method: STANDARD PLATE active; positive | Test System: AMES SALMONELLA TYPHIMURIUM, Strain/Indicator: TA98, Metabolic Activation: RAT, LIVER, MICROSOMES, Method: STANDARD PLATE active; positive | Test System: AMES SALMONELLA TYPHIMURIUM, Strain/Indicator: TA98, Metabolic Activation: RAT, LUNG, MICROSOMES, AROCLOR 1254, Method: STANDARD PLATE active; positive | Test System: CHINESE HAMSTER OVARY, Strain/Indicator: V-79/6-THIOGUANINE, Metabolic Activation: RAT, LIVER, S-9, AROCLOR 1254, Method: FLASK ASSAY active; positive | Test System: CHINESE HAMSTER OVARY, Strain/Indicator: V-79/6-THIOGUANINE, Metabolic Activation: SHE CELL MEDIATED, Method: FLASK ASSAY active; positive | Test System: CHINESE HAMSTER V-79, Strain/Indicator: V-79/6-THIOGUANINE, Metabolic Activation: RAT, LIVER, S-9, AROCLOR 1254, Method: SUSPENSION/PLATE active; positive | Test System: CHINESE HAMSTER V-79, Strain/Indicator: V-79/6-THIOGUANINE, Metabolic Activation: SHE CELL-MEDIATED, Method: SUSPENSION/PLATE active; positive | Test System: MOUSE LYMPHOMA, Strain/Indicator: L5178Y (TK+/TK-), Metabolic Activation: RAT, LIVER, S-9, AROCLOR 1254, Method: SUSPENSION/PLATE active; positive | Test System: UDS RAT HEPATOCYTES, Strain/Indicator: THY INCORP, Metabolic Activation: NONE, Method: LIQUID SCINTILLATION COUNTING active; positive

NCCc1cnc[nH]1
inactive: [1] inactive; negative | Test System: AMES SALMONELLA TYPHIMURIUM, Strain/Indicator: TA97, Metabolic Activation: RAT, LIVER, S-9, AROCLOR 1254, Method: STANDARD PLATE inactive; negative | [2] inactive; negative | Test System: AMES SALMONELLA TYPHIMURIUM, Strain/Indicator: TA98, Metabolic Activation: RAT, LIVER, S-9, AROCLOR 1254, Method: STANDARD PLATE inactive; negative | [3] inactive; negative | Test System: AMES SALMONELLA TYPHIMURIUM, Strain/Indicator: TA100, Metabolic Activation: RAT, LIVER, S-9, AROCLOR 1254, Method: STANDARD PLATE inactive; negative | Test System: AMES SALMONELLA TYPHIMURIUM, Strain/Indicator: TA102, Metabolic Activation: NONE, Method: STANDARD PLATE inactive; negative | Test System: AMES SALMONELLA TYPHIMURIUM, Strain/Indicator: TA102, Metabolic Activation: RAT, LIVER, S-9, AROCLOR 1254, Method: STANDARD PLATE inactive; negative | Test System: UDS RAT HEPATOCYTES, Strain/Indicator: THY INCORP, Metabolic Activation: NONE, Method: AUTORADIOGRAPHY inactive; negative

OC(c1ccc(Cl)cc1)(c1ccc(Cl)cc1)C(Cl)(Cl)Cl
inactive: End Point: IN VITRO CHROMOSOMAL ABERRATIONS, Test System: CHINESE HAMSTER OVARY CELLS, Metabolic Activation: NONE inactive; negative | End Point: IN VITRO CHROMOSOMAL ABERRATIONS, Test System: CHINESE HAMSTER OVARY CELLS, Metabolic Activation: RAT, LIVER, S-9, AROCLOR 1254 inactive; negative | End Point: IN VIVO MICRONUCLEUS, Test System: BONE MARROW POLYCHROMATIC ERYTHROCYTES, Species: MOUSE, Strain/Sex: SWISS/MALE, FEMALE, Route: IP 2X IN AQUEOUS SUSPENSION WITHIN 24 HR inactive; negative

Cc1c(C)c2c(Cl)c3ccccc3nc2c2ccccc12
active: Test System: AMES SALMONELLA TYPHIMURIUM, Strain/Indicator: TA97, Metabolic Activation: NONE, Method: PREINCUBATION active; positive | [1] active; positive | [4] active; positive | Test System: AMES SALMONELLA TYPHIMURIUM, Strain/Indicator: TA1537, Metabolic Activation: NONE, Method: PREINCUBATION active; positive

Nc1c([N+](=O)[O-])cccc1[N+](=O)[O-]
active: [4] active; positive | Test System: AMES SALMONELLA TYPHIMURIUM, Strain/Indicator: TA98, Metabolic Activation: RAT, LIVER, S-9, KANECHLOR 500, Method: PREINCUBATION active; positive | Test System: AMES SALMONELLA TYPHIMURIUM, Strain/Indicator: TA100, Metabolic Activation: NONE, Method: PREINCUBATION active; positive | Test System: AMES SALMONELLA TYPHIMURIUM, Strain/Indicator: TA100, Metabolic Activation: RAT, LIVER, S-9, KANECHLOR 500, Method: PREINCUBATION active; positive

Cc1cn2c(N=O)c(-c3ccc([N+](=O)[O-])cc3)nc2s1
active: [2] active; positive | [3] active; positive | Test System: AMES SALMONELLA TYPHIMURIUM, Strain/Indicator: TA1538, Metabolic Activation: NONE, Method: STANDARD PLATE active; positive
inactive: Test System: AMES SALMONELLA TYPHIMURIUM, Strain/Indicator: TA1535, Metabolic Activation: NONE, Method: STANDARD PLATE inactive; negative | Test System: AMES SALMONELLA TYPHIMURIUM, Strain/Indicator: TA1537, Metabolic Activation: NONE, Method: STANDARD PLATE inactive; negative

Cc1ccc(N=[N+]([O-])c2ccc(C)c(N)c2)cc1N
inactive: [4] inactive; negative | Test System: AMES SALMONELLA TYPHIMURIUM, Strain/Indicator: TA98, Metabolic Activation: NONE, Method: SUSPENSION/PLATE inactive; negative | Test System: AMES SALMONELLA TYPHIMURIUM, Strain/Indicator: TA100, Metabolic Activation: NONE, Method: SUSPENSION/PLATE inactive; negative | Test System: AMES SALMONELLA TYPHIMURIUM, Strain/Indicator: TA100, Metabolic Activation: RAT, LIVER, S-9, PHENOBARBITAL AND 5,6-BENZOFLAVONE, Method: SUSPENSION/PLATE inactive; negative
active: Test System: AMES SALMONELLA TYPHIMURIUM, Strain/Indicator: TA98, Metabolic Activation: RAT, LIVER, S-9, PCB, Method: PREINCUBATION active; positive | Test System: AMES SALMONELLA TYPHIMURIUM, Strain/Indicator: TA98, Metabolic Activation: RAT, LIVER, S-9, PHENOBARBITAL AND 5,6-BENZOFLAVONE, Method: SUSPENSION/PLATE active; positive

CC(C)=CC1C(C(=O)OC(C#N)c2cccc(Oc3ccccc3)c2)C1(C)C (stereo not given)
inactive: Test System: Ames Salmonella typhimurium, Strain/Indicator: TA98, Metabolic Activation: None, Method: Preincubation inactive; negative | Test System: Ames Salmonella typhimurium, Strain/Indicator: TA98, Metabolic Activation: Rat, liver, S-9, Method: Preincubation inactive; negative | Test System: Ames Salmonella typhimurium, Strain/Indicator: TA100, Metabolic Activation: None, Method: Preincubation inactive; negative | Test System: Ames Salmonella typhimurium, Strain/Indicator: TA100, Metabolic Activation: Rat, liver, S-9, Method: Preincubation inactive; negative | Test System: Ames Salmonella typhimurium, Strain/Indicator: TA1535, Metabolic Activation: None, Method: Preincubation inactive; negative | Test System: Ames Salmonella typhimurium, Strain/Indicator: TA1535, Metabolic Activation: Rat, liver, S-9, Method: Preincubation inactive; negative | Test System: Ames Salmonella typhimurium, Strain/Indicator: TA1537, Metabolic Activation: None, Method: Preincubation inactive; negative | Test System: Ames Salmonella typhimurium, Strain/Indicator: TA1537, Metabolic Activation: Rat, liver, S-9, Method: Preincubation inactive; negative | Test System: Ames Salmonella typhimurium, Strain/Indicator: TA1538, Metabolic Activation: None, Method: Preincubation inactive; negative | Test System: Ames Salmonella typhimurium, Strain/Indicator: TA1538, Metabolic Activation: Rat, liver, S-9, Method: Preincubation inactive; negative | Test System: E. coli, Strain/Indicator: WP-2 uvrA, Metabolic Activation: None, Method: Preincubation inactive; negative | Test System: E. coli, Strain/Indicator: WP-2 uvrA, Metabolic Activation: Rat, liver, S-9, Method: Preincubation inactive; negative
